Measurements reported in publication PMC5218480 (PLoS ONE, 2017).

System: MV-4-11 cells
Assay: Gene expression microarray analysis (Affymetrix PrimeView) and GSEA
Format: cell-based, human
Set-up: RFU PODN (11730768_x_at) / Fold change /veh PODN (11730768_x_at) / RFU LINC00158 (11744669_a_at) / Fold change /veh LINC00158 (11744669_a_at) / RFU DUSP10 (11751237_a_at) / Fold change /veh DUSP10 (11751237_a_at) / RFU ID3 (11757404_x_at) / Fold change /veh ID3 (11757404_x_at) / RFU PLEKHG5 (11737974_s_at) / Fold change /veh PLEKHG5 (11737974_s_at) / RFU LRRC4B (11730491_at) / Fold change /veh LRRC4B (11730491_at) / RFU GIMAP4 (11747438_a_at) / Fold change /veh GIMAP4 (11747438_a_at) / RFU KRT8 (11758183_x_at) / Fold change /veh KRT8 (11758183_x_at) / RFU CNN1 (11734310_a_at) / Fold change /veh CNN1 (11734310_a_at) / RFU VPS37D (11726825_at) / Fold change /veh VPS37D (11726825_at) / RFU C10orf10 (11716522_x_at) / Fold change /veh C10orf10 (11716522_x_at) / RFU KIR2DL2 /// KIR2DL4 /// KIR2DL5A /// KIR2DL5B /// KIR2DS1 /// KIR2DS2 /// KIR2DS3 /// KIR2DS4 /// KIR3DL3 /// KIR3DL3 /// KIR3DS1 (11738374_at) / Fold change /veh KIR2DL2 /// KIR2DL4 /// KIR2DL5A /// KIR2DL5B /// KIR2DS1 /// KIR2DS2 /// KIR2DS3 /// KIR2DS4 /// KIR3DL3 /// KIR3DL3 /// KIR3DS1 (11738374_at) / RFU C1QL1 (11718748_at) / Fold change /veh C1QL1 (11718748_at) / RFU TMPRSS4 (11747572_a_at) / Fold change /veh TMPRSS4 (11747572_a_at) / RFU HAMP (11756126_x_at) / Fold change /veh HAMP (11756126_x_at) / RFU RNFT2 (11725882_a_at) / Fold change /veh RNFT2 (11725882_a_at) / RFU NR4A2 (11747474_a_at) / Fold change /veh NR4A2 (11747474_a_at) / RFU ABCC12 (11746883_a_at) / Fold change /veh ABCC12 (11746883_a_at) / RFU TMEM136 (11760407_x_at) / Fold change /veh TMEM136 (11760407_x_at) / RFU CLDN22 /// WWC2 (11732394_at) / Fold change /veh CLDN22 /// WWC2 (11732394_at) / RFU HLA-DPB1 (11760878_x_at) / Fold change /veh HLA-DPB1 (11760878_x_at) / RFU SPINT1 (11716480_a_at) / Fold change /veh SPINT1 (11716480_a_at) / RFU GAP43 (11754022_s_at) / Fold change /veh GAP43 (11754022_s_at) / RFU A4GNT (11735810_at) / Fold change /veh A4GNT (11735810_at) / RFU PRB3 (11715151_x_at) / Fold change /veh PRB3 (11715151_x_at) / RFU TUBB4B (11761932_at) / Fold change /veh TUBB4B (11761932_at) / RFU CAPN14 (11732068_a_at) / Fold change /veh CAPN14 (11732068_a_at) / RFU TMCC2 (11721928_a_at) / Fold change /veh TMCC2 (11721928_a_at) / RFU IRGQ (11745062_a_at) / Fold change /veh IRGQ (11745062_a_at) / RFU FAM174B (11720279_a_at) / Fold change /veh FAM174B (11720279_a_at) / RFU TMPRSS4 (11748680_a_at) / Fold change /veh TMPRSS4 (11748680_a_at) / RFU FAM212B (11763350_a_at) / Fold change /veh FAM212B (11763350_a_at) / RFU PLEKHG5 (11743358_a_at) / Fold change /veh PLEKHG5 (11743358_a_at) / RFU ZSCAN30 (11745921_a_at) / Fold change /veh ZSCAN30 (11745921_a_at) / RFU CMKLR1 (11741424_a_at) / Fold change /veh CMKLR1 (11741424_a_at) / RFU LOC101060620 /// MAPK8IP1 (11723275_at) / Fold change /veh LOC101060620 /// MAPK8IP1 (11723275_at) / RFU SPTSSB (11747773_x_at) / Fold change /veh SPTSSB (11747773_x_at) / RFU PRSS12 (11739890_at) / Fold change /veh PRSS12 (11739890_at) / RFU BIN1 (11741810_x_at) / Fold change /veh BIN1 (11741810_x_at) / RFU WNT11 (11732464_a_at) / Fold change /veh WNT11 (11732464_a_at) / RFU C10orf10 (11716521_a_at) / Fold change /veh C10orf10 (11716521_a_at) / RFU C5orf56 (11738089_at) / Fold change /veh C5orf56 (11738089_at) / RFU CYB561 (11721691_x_at) / Fold change /veh CYB561 (11721691_x_at) / RFU ANKRD19P (11752326_a_at) / Fold change /veh ANKRD19P (11752326_a_at) / RFU OR2T12 /// OR2T33 /// OR2T8 (11738714_s_at) / Fold change /veh OR2T12 /// OR2T33 /// OR2T8 (11738714_s_at) / RFU VCAN (11748164_a_at) / Fold change /veh VCAN (11748164_a_at) / RFU JSRP1 (11732532_at) / Fold change /veh JSRP1 (11732532_at) / RFU KRTAP10-11 (11738290_x_at) / Fold change /veh KRTAP10-11 (11738290_x_at) / RFU MYO3A (11730013_a_at) / Fold change /veh MYO3A (11730013_a_at) / RFU EBF3 (11725865_a_at) / Fold change /veh EBF3 (11725865_a_at) / RFU CAMK2N1 (11719241_x_at) / Fold change /veh CAMK2N1 (11719241_x_at) / RFU C5orf56 (11738088_a_at) / Fold change /veh C5orf56 (11738088_a_at) / RFU OLFML3 (11715873_a_at) / Fold change /veh OLFML3 (11715873_a_at) / RFU LOC100653217 /// NTM (11731650_a_at) / Fold change /veh LOC100653217 /// NTM (11731650_a_at) / RFU MAPK11 (11762145_a_at) / Fold change /veh MAPK11 (11762145_a_at) / RFU FIZ1 (11724087_x_at) / Fold change /veh FIZ1 (11724087_x_at) / RFU OASL (11726364_x_at) / Fold change /veh OASL (11726364_x_at) / RFU SOX15 (11748057_x_at) / Fold change /veh SOX15 (11748057_x_at) / RFU CD79A (11719716_a_at) / Fold change /veh CD79A (11719716_a_at) / RFU HIST1H1D (11736915_at) / Fold change /veh HIST1H1D (11736915_at) / RFU CASKIN2 (11723855_a_at) / Fold change /veh CASKIN2 (11723855_a_at) / RFU LOC730098 (11760151_x_at) / Fold change /veh LOC730098 (11760151_x_at) / RFU OR4N2 (11742367_at) / Fold change /veh OR4N2 (11742367_at) / RFU PRRT2 (11749266_a_at) / Fold change /veh PRRT2 (11749266_a_at) / RFU SNX32 (11753110_a_at) / Fold change /veh SNX32 (11753110_a_at) / RFU CDHR5 (11726645_a_at) / Fold change /veh CDHR5 (11726645_a_at) / RFU RCAN1 (11760418_a_at) / Fold change /veh RCAN1 (11760418_a_at) / RFU FAM167A (11723789_a_at) / Fold change /veh FAM167A (11723789_a_at) / RFU FAM26E (11764081_at) / Fold change /veh FAM26E (11764081_at) / RFU ISYNA1 (11749810_s_at) / Fold change /veh ISYNA1 (11749810_s_at) / RFU ACY1 (11761880_at) / Fold change /veh ACY1 (11761880_at) / RFU 11764098_at / Fold change /veh 11764098_at / RFU SAMD14 (11745864_x_at) / Fold change /veh SAMD14 (11745864_x_at) / RFU NPB (11741838_a_at) / Fold change /veh NPB (11741838_a_at) / RFU TMPRSS6 (11731388_a_at) / Fold change /veh TMPRSS6 (11731388_a_at) / RFU KRTAP10-2 (11738614_at) / Fold change /veh KRTAP10-2 (11738614_at) / RFU ARHGAP8 /// PRR5-ARHGAP8 (11727945_x_at) / Fold change /veh ARHGAP8 /// PRR5-ARHGAP8 (11727945_x_at) / RFU KRTAP5-7 /// NADSYN1 (11734609_at) / Fold change /veh KRTAP5-7 /// NADSYN1 (11734609_at) / RFU RASL12 (11751679_a_at) / Fold change /veh RASL12 (11751679_a_at) / RFU CDKN2B (11736163_a_at) / Fold change /veh CDKN2B (11736163_a_at) / RFU PRF1 (11729649_at) / Fold change /veh PRF1 (11729649_at) / RFU, ZNF638 /// ZNF638-IT1 / Fold change vs veh, ZNF638 /// ZNF638-IT1 / RFU, PANK3 / Fold change vs veh, PANK3 / RFU, SH3YL1 / Fold change vs veh, SH3YL1 / RFU, ZEB2 / Fold change vs veh, ZEB2 / RFU, NRIP1 / Fold change vs veh, NRIP1 / RFU, PTTG1IP / Fold change vs veh, PTTG1IP / RFU, CAPN2 / Fold change vs veh, CAPN2 / RFU, MED14 / Fold change vs veh, MED14 / RFU, SNORA58 / Fold change vs veh, SNORA58 / RFU, C1orf63 / Fold change vs veh, C1orf63 / RFU, LRRFIP1 / Fold change vs veh, LRRFIP1 / RFU, NDUFAF7 / Fold change vs veh, NDUFAF7 / RFU, SLC12A2 / Fold change vs veh, SLC12A2 / RFU, IBTK / Fold change vs veh, IBTK / RFU, ESF1 / Fold change vs veh, ESF1 / Fold change vs veh, TMEM50B / RFU, TAOK1 / Fold change vs veh, TAOK1 / RFU, ACBD3 / Fold change vs veh, ACBD3 / RFU, TMA16 / Fold change vs veh, TMA16 / RFU, RWDD3 / Fold change vs veh, RWDD3 / RFU, BCAT1 / Fold change vs veh, BCAT1 / RFU, EDEM3 / Fold change vs veh, EDEM3 / RFU, TMEM33 / Fold change vs veh, TMEM33 / RFU, WDR75 / Fold change vs veh, WDR75 / RFU, AHCTF1 / Fold change vs veh, AHCTF1 / RFU, TFRC / Fold change vs veh, TFRC / RFU, ZDHHC17 / Fold change vs veh, ZDHHC17 / RFU, NOM1 / Fold change vs veh, NOM1 / RFU, ARL8B / Fold change vs veh, ARL8B / RFU, ZBTB11 / Fold change vs veh, ZBTB11 / RFU, TAMM41 / Fold change vs veh, TAMM41 / RFU, KIAA1704 /// LOC100996395 / Fold change vs veh, KIAA1704 /// LOC100996395 / RFU, ING1 / Fold change vs veh, ING1 / RFU, TRMT61B / Fold change vs veh, TRMT61B / RFU, FUBP3 / Fold change vs veh, FUBP3 / RFU, TP53 / Fold change vs veh, TP53 / RFU, TNKS2 / Fold change vs veh, TNKS2 / RFU, ZFP14 / Fold change vs veh, ZFP14 / RFU, ACTR2 / Fold change vs veh, ACTR2 / RFU, PPP3R1 / Fold change vs veh, PPP3R1 / RFU, PIK3R1 / Fold change vs veh, PIK3R1 / RFU, HNRNPA1 / Fold change vs veh, HNRNPA1 / RFU, RNF170 / Fold change vs veh, RNF170 / RFU, ZNF28 / Fold change vs veh, ZNF28 / RFU, RNGTT / Fold change vs veh, RNGTT / RFU, OGT / Fold change vs veh, OGT / RFU, BRD1 / Fold change vs veh, BRD1 / RFU, MARS / Fold change vs veh, MARS / RFU, ZNF655 / Fold change vs veh, ZNF655 / RFU, FAHD1 / Fold change vs veh, FAHD1 / RFU, BDP1 / Fold change vs veh, BDP1 / RFU, LRRCC1 / Fold change vs veh, LRRCC1 / RFU, ARID1A / Fold change vs veh, ARID1A / RFU, ZNF146 / Fold change vs veh, ZNF146 / RFU, ZNF330 / Fold change vs veh, ZNF330 / RFU, GPN3 / Fold change vs veh, GPN3 / RFU, C9orf123 / Fold change vs veh, C9orf123 / RFU, N4BP2L2 / Fold change vs veh, N4BP2L2 / RFU, ARFIP1 / Fold change vs veh, ARFIP1 / RFU, FAM179B / Fold change vs veh, FAM179B / RFU, BCL10 / Fold change vs veh, BCL10 / RFU, UHRF1BP1L / Fold change vs veh, UHRF1BP1L / RFU, BET1 / Fold change vs veh, BET1 / RFU, CNOT2 / Fold change vs veh, CNOT2 / RFU, ZNF268 / Fold change vs veh, ZNF268 / Fold change vs veh, ZNF507 / RFU, DGCR2 / Fold change vs veh, DGCR2 / RFU, WDSUB1 / Fold change vs veh, WDSUB1 / Fold change vs veh, HSP90B1 /// MIR3652 / RFU, ADSS / Fold change vs veh, ADSS / RFU, GK / Fold change vs veh, GK / RFU, ZNF148 / Fold change vs veh, ZNF148 / RFU, TAF9 / Fold change vs veh, TAF9 / RFU, SLC1A5 / Fold change vs veh, SLC1A5 / RFU, SLMO2 / Fold change vs veh, SLMO2 / RFU, ABCC4 / Fold change vs veh, ABCC4 / RFU, LOC101060439 /// RAP1B / Fold change vs veh, LOC101060439 /// RAP1B / RFU, RFX7 / Fold change vs veh, RFX7 / RFU, GTPBP10 / Fold change vs veh, GTPBP10 / RFU, CNEP1R1 / Fold change vs veh, CNEP1R1 / RFU, BIVM-ERCC5 /// ERCC5 / Fold change vs veh, BIVM-ERCC5 /// ERCC5 / RFU, ILF3 / Fold change vs veh, ILF3 / RFU 11762660_at / Fold change /veh 11762660_at / RFU VCAN (11757783_s_at) / Fold change /veh VCAN (11757783_s_at) / RFU DDX43 (11728927_at) / Fold change /veh DDX43 (11728927_at) / RFU KRT8 (11758188_x_at) / Fold change /veh KRT8 (11758188_x_at) / RFU NKD1 (11759106_at) / Fold change /veh NKD1 (11759106_at) / RFU SRD5A1 (11742802_a_at) / Fold change /veh SRD5A1 (11742802_a_at) / RFU TPSAB1 /// TPSB2 (11721975_s_at) / Fold change /veh TPSAB1 /// TPSB2 (11721975_s_at) / RFU GSTM3 (11746129_a_at) / Fold change /veh GSTM3 (11746129_a_at) / RFU IL23R (11737362_x_at) / Fold change /veh IL23R (11737362_x_at) / RFU TMEM51 (11727254_a_at) / Fold change /veh TMEM51 (11727254_a_at) / RFU PIWIL2 (11732686_x_at) / Fold change /veh PIWIL2 (11732686_x_at) / RFU ORM1 (11744905_x_at) / Fold change /veh ORM1 (11744905_x_at) / RFU CCDC152 (11743942_at) / Fold change /veh CCDC152 (11743942_at) / RFU ECM1 (11717891_a_at) / Fold change /veh ECM1 (11717891_a_at) / RFU IL23R (11748794_a_at) / Fold change /veh IL23R (11748794_a_at) / RFU TNFAIP8L3 (11732012_x_at) / Fold change /veh TNFAIP8L3 (11732012_x_at) / RFU MBOAT4 (11741988_at) / Fold change /veh MBOAT4 (11741988_at) / RFU 11764193_at / Fold change /veh 11764193_at / RFU TMEM53 (11763286_at) / Fold change /veh TMEM53 (11763286_at) / RFU MAGEB2 (11727129_at) / Fold change /veh MAGEB2 (11727129_at) / RFU TMEM200A (11744735_a_at) / Fold change /veh TMEM200A (11744735_a_at) / RFU CCDC152 (11751479_a_at) / Fold change /veh CCDC152 (11751479_a_at) / RFU FAM211A (11726209_a_at) / Fold change /veh FAM211A (11726209_a_at) / RFU RGS16 (11746705_a_at) / Fold change /veh RGS16 (11746705_a_at) / RFU VCAN (11755009_s_at) / Fold change /veh VCAN (11755009_s_at) / RFU RHOB (11743442_s_at) / Fold change /veh RHOB (11743442_s_at) / RFU RGS16 (11720943_a_at) / Fold change /veh RGS16 (11720943_a_at) / RFU RGS16 (11720944_at) / Fold change /veh RGS16 (11720944_at) / RFU, VPS4B / Fold change vs veh, VPS4B / RFU, CREB1 / Fold change vs veh, CREB1 / RFU, DNAJC13 / Fold change vs veh, DNAJC13 / RFU, GNAQ / Fold change vs veh, GNAQ / RFU, CDK5R1 / Fold change vs veh, CDK5R1 / RFU, ZRANB3 / Fold change vs veh, ZRANB3 / RFU, CUL4A / Fold change vs veh, CUL4A / RFU, CCNY / Fold change vs veh, CCNY / RFU, UFL1 / Fold change vs veh, UFL1 / RFU, COG3 / Fold change vs veh, COG3 / RFU, DIAPH2 / Fold change vs veh, DIAPH2 / RFU, SKA2 / Fold change vs veh, SKA2 / RFU, AFF3 / Fold change vs veh, AFF3 / RFU, LMF1 / Fold change vs veh, LMF1 / RFU, IPO11 / Fold change vs veh, IPO11 / RFU, DFFB / Fold change vs veh, DFFB / RFU, FOXP1 / Fold change vs veh, FOXP1 / RFU, CARD8 / Fold change vs veh, CARD8 / RFU, STRN3 / Fold change vs veh, STRN3 / RFU, ADK / Fold change vs veh, ADK / RFU, RASSF2 / Fold change vs veh, RASSF2 / RFU, WIPF1 / Fold change vs veh, WIPF1 / RFU, LARP1B / Fold change vs veh, LARP1B / RFU, RASA1 / Fold change vs veh, RASA1 / RFU, RB1 / Fold change vs veh, RB1 / RFU, PPFIA1 / Fold change vs veh, PPFIA1 / RFU, MAT2A / Fold change vs veh, MAT2A / RFU, CCT5 / Fold change vs veh, CCT5 / RFU, WDR92 / Fold change vs veh, WDR92 / RFU, CUX1 / Fold change vs veh, CUX1 / RFU, TTC7A / Fold change vs veh, TTC7A / RFU, TMEM135 / Fold change vs veh, TMEM135 / RFU, DEPTOR / Fold change vs veh, DEPTOR / RFU, CPM / Fold change vs veh, CPM / RFU, DNAJB6 / Fold change vs veh, DNAJB6 / RFU, CACNA2D3 / Fold change vs veh, CACNA2D3 / RFU, DTX4 / Fold change vs veh, DTX4 / RFU, TFCP2 / Fold change vs veh, TFCP2 / RFU, GMCL1 /// GMCL1P1 / Fold change vs veh, GMCL1 /// GMCL1P1 / RFU, AEBP2 / Fold change vs veh, AEBP2 / RFU, SNHG1 /// SNORD22 /// SNORD25 /// SNORD26 /// SNORD27 /// SNORD28 /// SNORD29 /// SNORD31 / Fold change vs veh, SNHG1 /// SNORD22 /// SNORD25 /// SNORD26 /// SNORD27 /// SNORD28 /// SNORD29 /// SNORD31 / Fold change (Aza/veh), C12orf56 (ProbeSet 11735607_a_at) / Fold change (ACY-1035/veh), C12orf56 (ProbeSet 11735607_a_at) / Fold change (Aza/veh), FGFR1OP (ProbeSet 11751329_s_at) / Fold change (ACY-1035/veh), FGFR1OP (ProbeSet 11751329_s_at) / Fold change (Aza/veh), VPS36 (ProbeSet 11739960_a_at) / Fold change (ACY-1035/veh), VPS36 (ProbeSet 11739960_a_at) / RFU SYPL1 (11715823_x_at) / Fold change /veh SYPL1 (11715823_x_at) / RFU IGFBP7 (11715501_s_at) / Fold change /veh IGFBP7 (11715501_s_at) / RFU REEP3 (11722064_at) / Fold change /veh REEP3 (11722064_at) / RFU IGLL1 (11728026_x_at) / Fold change /veh IGLL1 (11728026_x_at): dose or concentration left out as unconfirmed
Conditions: ProbeSet 11749477_a_at; LIST B

Nc1ncn([C@@H]2O[C@H](CO)[C@@H](O)[C@H]2O)c(=O)n1 [azacitidine]
RFU, EDEM3: 49.32 RFU
